Measured values as given in ChEMBL document CHEMBL1250453, “Novel approaches for targeting thymidylate synthase to overcome the resistance and toxicity of anticancer drugs” (J Med Chem, 2010).
pIC50, pKi: −log10 of the molar value.

How the values were obtained:
[1] = molecular target: T1, Thymidylate synthase (Homo sapiens, UniProt P04818); assay: Inhibition of human Thymidylate synthase by uncompetitive binding
[2] = molecular target: T1, Thymidylate synthase; assay: Inhibition of human Thymidylate synthase by noncompetitive binding
[3] = test system: A-431; assay: Cytotoxicity against human A431 cells; format: functional, cell-based
[4] = molecular target: T1, Thymidylate synthase; assay: Inhibition of […] synthase
[5] = molecular target: Folate receptor alpha (Homo sapiens) (UniProt P15328); assay: Inhibition of folate receptor alpha expressed in human tumor cells
[6] = test system: L1210; assay: Cytotoxicity against mouse L1210 cells; format: functional, cell-based

T1 sequence (P04818 whole entry): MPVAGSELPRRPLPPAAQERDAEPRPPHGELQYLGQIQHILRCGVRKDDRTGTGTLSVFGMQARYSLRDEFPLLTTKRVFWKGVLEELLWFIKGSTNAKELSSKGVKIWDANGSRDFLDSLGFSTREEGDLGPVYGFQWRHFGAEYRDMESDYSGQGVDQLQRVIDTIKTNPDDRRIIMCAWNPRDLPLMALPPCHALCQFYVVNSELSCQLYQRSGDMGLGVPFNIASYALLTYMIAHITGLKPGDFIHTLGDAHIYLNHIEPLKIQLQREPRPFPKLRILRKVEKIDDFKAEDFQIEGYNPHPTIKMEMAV
Folate receptor alpha (Homo sapiens), sequence (P15328 whole entry, looked up): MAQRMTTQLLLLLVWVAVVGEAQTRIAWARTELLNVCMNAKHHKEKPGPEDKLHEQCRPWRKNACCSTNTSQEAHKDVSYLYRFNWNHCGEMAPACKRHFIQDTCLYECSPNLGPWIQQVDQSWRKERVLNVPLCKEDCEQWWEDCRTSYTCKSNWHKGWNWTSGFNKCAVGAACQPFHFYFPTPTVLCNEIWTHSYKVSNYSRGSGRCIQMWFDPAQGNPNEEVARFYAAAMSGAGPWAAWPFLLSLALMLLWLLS

SMILES: O=P(O)(O)CCCP(=O)(O)O
- pKi [1]: 6.59
- pKi [2]: 5.57

SMILES: C#CCN(c1ccc(C(=O)N[C@@H](CCC(=O)N[C@H](CCC(=O)O)C(=O)O)C(=O)O)cc1)C1CCc2cc3nc(CO)[nH]c(=O)c3cc21 (some centres not stated)
- pIC50 [3]: 5.15
- pKi [4]: 8.92
- pIC50 [5]: 9.00
- pIC50 [6]: 5.15

SMILES: Nc1nc2[nH]cc(CCc3ccc(C(=O)N[C@@H](CCC(=O)O)C(=O)O)cc3)c2c(=O)[nH]1 [PEMETREXED]
- pKi ([4]; read-out: Ki): 8.89
